According to article PMC9272937, “Anti-breast cancer sinomenine derivatives via mechanisms of apoptosis induction and metastasis reduction” (Journal of Enzyme Inhibition and Medicinal Chemistry, 2022):
Where two headings read alike, the source gives them in different places. One block for each molecule: values may come before it.

Columns and labels:
[1] = system: human lung cancer cell line A549; experiment: CCK-8 antiproliferative assay, A549; assay type: cell-based; settings: CCK-8, 48 h, mean ± SD of three experiments
Method: (§1) The antiproliferative activities of target compounds were examined by CCK-8 assay in three cancer cells (human lung cancer cell line A549, human mammary gland tumour cell line MCF-7 and human TNBC cell line MDA-MB-231) and one normal cell (human normal breast cell line MCF10A). All cell lines were sourced from KeyGEN Biotech, […], China, and a standard DMEM medium was applied to all cell cultures then subjected to 24 h incubation at 37 °C in a humidified environment with 5% CO2. After that logarithmic growing cells were plated on 96-well plates with 8,000 cells per well in a […] medium for 24 h incubation at 37 °C with 5% CO2. The DMEM medium with bovine serum was removed from each well. Then, prerequisite target compounds and positive controls were added to different cell lines in a predetermined concentration regiment for 48 h culture.

[2] = system: human mammary gland tumour cell line MCF-7; experiment: CCK-8 antiproliferative assay, MCF-7; assay type: cell-based; settings: for IC50: Homo sapiens, read-out: IC50 MCF-7; for SI MCF-7 (selectivity index): SI = IC50(MCF-10A)/IC50(MCF-7)
Method: as §1

[3] = system: human TNBC cell line MDA-MB-231; experiment: CCK-8 antiproliferative assay, MDA-MB-231; assay type: cell-based; settings: for IC50: Homo sapiens, read-out: IC50 MDA-MB-231; for SI MDA-MB-231 (selectivity index): SI = IC50(MCF-10A)/IC50(MDA-MB-231)
Method: as §1

[4] = Griess assay, NO-releasing capacity; settings: 10^−4 mol/l compound, L-cysteine, 37 °C; for NO peak releasing: 15-180 min
Method: The NO-releasing capacity of each target compound was determined by the colorimetric method under the instructions of the manufacturer. Preparation of standard curves of 0, 1.56, 3.13, 6.25, 12.5, 25, 50 and 100 μmol/L nitrite nitrogen series standard solution was prepared. 50 μL to 96-well plate was added respectively and then mixed with 50 μL Griess I and Griess II; the absorption value was measured at 540 nm wavelength. A standard curve was drawn from the obtained data. Compounds were formulated into 10^−4 mol/l with PBS (pH = 7.4) and pharmaceutical DMSO. The newly formulated L-cysteine solution 100 μL ([…]) was added and incubated at 37 °C for 15, 30, 45, 60, 90, 120, 150 and180 min, respectively. Griess I and II recovered to room temperature, 50 μL of compounds 7A–E(a–c) were added respectively into the 96-well plate, and then 50 μL of Griess I and 50 μL of Griess II were added in sequence, with the absorbance tested at 540 nm. The amount of NO released was then calculated according to the standard curve.

[5] = system: human normal breast cell line MCF10A; experiment: CCK-8 assay, normal cells MCF10A; assay type: cell-based; settings: MCF-10A, CCK-8, 48 h, mean ± SD of three experiments
Method: as §1

Compound: COC1=CC2[C@H]3Cc4ccc(OC)c(OC(=O)CCC(=O)OCCOc5no[n+]([O-])c5S(=O)(=O)c5ccccc5)c4[C@@]2(CCN3C)CC1=O (stereo partly drawn) [7Aa, 4–(2-((4-(((4bs,9R)-3,7-Dimethoxy-11-methyl-6-oxo-6,8a,9,10-tetrahydro-5H-9,4b-(epiminoethano)phenanthren-4-yl)oxy)-4-oxobutanoyl)oxy)ethoxy)-3-(phenylsulfonyl)-1,2,5-oxadiazole 2-oxide]
IC50 ([1]; Homo sapiens, A549): 15.2 ± 1.37 µM
IC50 ([2]; MCF7, 48 h): 26.4 ± 1.25 µM
SI MCF-7 (selectivity index) [2]: >1.89
IC50 ([3]; MDA-MB-231, 48 h): 31.5 ± 2.77 µM
SI MDA-MB-231 (selectivity index) [3]: >1.58
NO peak releasing [4]: exceeding 40 μmol/L
IC50 [5]: > 50 µM

Compound: COC1=CC2[C@H]3Cc4ccc(OC)c(OC(=O)CCCC(=O)OCCOc5no[n+]([O-])c5S(=O)(=O)c5ccccc5)c4[C@@]2(CCN3C)CC1=O (stereo partly drawn) [7Ab, 4–(2-((5-(((4bs,9R)-3,7-Dimethoxy-11-methyl-6-oxo-6,8a,9,10-tetrahydro-5H-9,4b-(epiminoethano)phenanthren-4-yl)oxy)-5-oxopentanoyl)oxy)ethoxy)-3-(phenylsulfonyl)-1,2,5-oxadiazole 2-oxide]
IC50 ([1]; Homo sapiens, A549): 9.41 ± 0.68 µM
IC50 ([2]; MCF7, 48 h): 15.3 ± 0.94 µM
SI MCF-7 (selectivity index) [2]: >3.27
IC50 ([3]; MDA-MB-231, 48 h): 29.6 ± 1.8 µM
SI MDA-MB-231 (selectivity index) [3]: >1.69
IC50 [5]: > 50 µM

Compound: COC1=CC2[C@H]3Cc4ccc(OC)c(OC(=O)c5ccccc5C(=O)OCCOc5no[n+]([O-])c5S(=O)(=O)c5ccccc5)c4[C@@]2(CCN3C)CC1=O (stereo partly drawn) [7Ac, 4–(2-((2-((((4bs,9R)-3,7-Dimethoxy-11-methyl-6-oxo-6,8a,9,10-tetrahydro-5H-9,4b-(epiminoethano)phenanthren-4-yl)oxy)carbonyl)benzoyl)oxy)ethoxy)-3-(phenylsulfonyl)-1,2,5-oxadiazole 2-oxide]
IC50 ([1]; Homo sapiens, A549): 2.33 ± 0.15 µM
IC50 ([2]; MCF7, 48 h): 5.87 ± 0.42 µM
SI MCF-7 (selectivity index) [2]: 3.67
IC50 ([3]; MDA-MB-231, 48 h): 1.62 ± 0.15 µM
SI MDA-MB-231 (selectivity index) [3]: 13.30
NO peak releasing [4]: exceeding 40 μmol/L
IC50 [5]: 21.5 ± 0.88 µM

Compound: COC1=CC2C3Cc4ccc(OC)c(OC(=O)CCC(=O)OCCCOc5no[n+]([O-])c5S(=O)(=O)c5ccccc5)c4C2(CCN3C)CC1=O (stereo not drawn) [7Ba]
IC50 ([1]; Homo sapiens, A549): 9.84 ± 0.47 µM
IC50 ([2]; MCF7, 48 h): 19 ± 1.33 µM
SI MCF-7 (selectivity index) [2]: >2.64
IC50 ([3]; MDA-MB-231, 48 h): 24.2 ± 1.97 µM
SI MDA-MB-231 (selectivity index) [3]: >2.06
NO release at 180 min ([4]; 180 min): 68.4 µmol/L
IC50 [5]: > 50 µM

Compound: COC1=CC2[C@H]3Cc4ccc(OC)c(OC(=O)CCCC(=O)OCCCOc5no[n+]([O-])c5S(=O)(=O)c5ccccc5)c4[C@@]2(CCN3C)CC1=O (stereo partly drawn) [7Bb, 4–(3-((5-(((4bs,9R)-3,7-Dimethoxy-11-methyl-6-oxo-6,8a,9,10-tetrahydro-5H-9,4b-(epiminoethano)phenanthren-4-yl)oxy)-5-oxopentanoyl)oxy)propoxy)-3-(phenylsulfonyl)-1,2,5-oxadiazole 2-oxide]
IC50 ([1]; Homo sapiens, A549): 4.91 ± 0.3 µM
IC50 ([2]; MCF7, 48 h): 19.7 ± 1.28 µM
SI MCF-7 (selectivity index) [2]: >2.54
IC50 ([3]; MDA-MB-231, 48 h): 16.4 ± 1.55 µM
SI MDA-MB-231 (selectivity index) [3]: >3.04
IC50 [5]: > 50 µM

Compound: COC1=CC2[C@H]3Cc4ccc(OC)c(OC(=O)c5ccccc5C(=O)OCCCOc5no[n+]([O-])c5S(=O)(=O)c5ccccc5)c4[C@@]2(CCN3C)CC1=O (stereo partly drawn) [7Bc, 4–(3-((2-((((4bs,9R)-3,7-Dimethoxy-11-methyl-6-oxo-6,8a,9,10-tetrahydro-5H-9,4b-(epiminoethano)phenanthren-4-yl)oxy)carbonyl)benzoyl)oxy)propoxy)-3-(phenylsulfonyl)-1,2,5-oxadiazole 2-oxide]
IC50 ([1]; Homo sapiens, A549): 5.05 ± 0.21 µM
IC50 ([2]; MCF7, 48 h): 12.2 ± 0.92 µM
SI MCF-7 (selectivity index) [2]: >4.11
IC50 ([3]; MDA-MB-231, 48 h): 18.7 ± 0.61 µM
SI MDA-MB-231 (selectivity index) [3]: >2.67
IC50 [5]: > 50 µM

Compound: COC1=CC2[C@H]3Cc4ccc(OC)c(OC(=O)CCCC(=O)OCCCCOc5no[n+]([O-])c5S(=O)(=O)c5ccccc5)c4[C@@]2(CCN3C)CC1=O (stereo partly drawn) [7Cb, 4–(4-((5-(((4bs,9R)-3,7-Dimethoxy-11-methyl-6-oxo-6,8a,9,10-tetrahydro-5H-9,4b-(epiminoethano)phenanthren-4-yl)oxy)-5-oxopentanoyl)oxy)butoxy)-3-(phenylsulfonyl)-1,2,5-oxadiazole 2-oxide]
IC50 ([1]; Homo sapiens, A549): 3.53 ± 0.29 µM
IC50 ([2]; MCF7, 48 h): 4.68 ± 0.39 µM
SI MCF-7 (selectivity index) [2]: 7.84
IC50 ([3]; MDA-MB-231, 48 h): 1.47 ± 0.14 µM
SI MDA-MB-231 (selectivity index) [3]: 24.97
IC50 [5]: 36.7 ± 1.02 µM

Compound: COC1=CC2[C@H]3Cc4ccc(OC)c(OC(=O)CCCC(=O)OCCCCCOc5no[n+]([O-])c5S(=O)(=O)c5ccccc5)c4[C@@]2(CCN3C)CC1=O (stereo partly drawn) [7Db, 4-((5-((5-(((4bs,9R)-3,7-Dimethoxy-11-methyl-6-oxo-6,8a,9,10-tetrahydro-5H-9,4b-(epiminoethano)phenanthren-4-yl)oxy)-5-oxopentanoyl)oxy)pentyl)oxy)-3-(phenylsulfonyl)-1,2,5-oxadiazole 2-oxide]
IC50 ([1]; Homo sapiens, A549): 3.92 ± 0.31 µM
IC50 ([2]; MCF7, 48 h): 2.94 ± 0.27 µM
SI MCF-7 (selectivity index) [2]: 13.43
IC50 ([3]; MDA-MB-231, 48 h): 3.11 ± 0.22 µM
SI MDA-MB-231 (selectivity index) [3]: 12.69
IC50 [5]: 39.5 ± 2.9 µM

Compound: COC1=CC2[C@H]3Cc4ccc(OC)c(OC(=O)CCC(=O)OCCCCCCOc5no[n+]([O-])c5S(=O)(=O)c5ccccc5)c4[C@@]2(CCN3C)CC1=O (stereo partly drawn) [7Ea, 4-((6-((4-(((4bs,9R)-3,7-Dimethoxy-11-methyl-6-oxo-6,8a,9,10-tetrahydro-5H-9,4b-(epiminoethano)phenanthren-4-yl)oxy)-4-oxobutanoyl)oxy)hexyl)oxy)-3-(phenylsulfonyl)-1,2,5-oxadiazole 2-oxide]
IC50 ([1]; Homo sapiens, A549): 4.62 ± 0.16 µM
IC50 ([2]; MCF7, 48 h): 25.3 ± 0.9 µM
SI MCF-7 (selectivity index) [2]: 2.79
IC50 ([3]; MDA-MB-231, 48 h): 19 ± 0.7 µM
SI MDA-MB-231 (selectivity index) [3]: 2.30
IC50 [5]: 43.6 ± 2.65 µM

Compound: COC1=CC2[C@H]3Cc4ccc(OC)c(OC(=O)CCCC(=O)OCCCCCCOc5no[n+]([O-])c5S(=O)(=O)c5ccccc5)c4[C@@]2(CCN3C)CC1=O (stereo partly drawn) [7Eb, 4-((6-((5-(((4bs,9R)-3,7-Dimethoxy-11-methyl-6-oxo-6,8a,9,10-tetrahydro-5H-9,4b-(epiminoethano)phenanthren-4-yl)oxy)-5-oxopentanoyl)oxy)hexyl)oxy)-3-(phenylsulfonyl)-1,2,5-oxadiazole 2-oxide]
IC50 ([1]; Homo sapiens, A549): 4.55 ± 0.43 µM
IC50 ([2]; MCF7, 48 h): 17.9 ± 1.26 µM
SI MCF-7 (selectivity index) [2]: >2.79
IC50 ([3]; MDA-MB-231, 48 h): 41.5 ± 1.48 µM
SI MDA-MB-231 (selectivity index) [3]: >1.21
IC50 [5]: > 50 µM

Compound: COC1=CC2[C@H]3Cc4ccc(OC)c(OC(=O)c5ccccc5C(=O)OCCCCCCOc5no[n+]([O-])c5S(=O)(=O)c5ccccc5)c4[C@@]2(CCN3C)CC1=O (stereo partly drawn) [7Ec, 4-((6-((2-((((4bs,9R)-3,7-Dimethoxy-11-methyl-6-oxo-6,8a,9,10-tetrahydro-5H-9,4b-(epiminoethano)phenanthren-4-yl)oxy)carbonyl)benzoyl)oxy)hexyl)oxy)-3-(phenylsulfonyl)-1,2,5-oxadiazole 2-oxide]
IC50 ([1]; Homo sapiens, A549): 4.81 ± 0.18 µM
IC50 ([2]; MCF7, 48 h): 3.94 ± 0.28 µM
SI MCF-7 (selectivity index) [2]: 12.26
IC50 ([3]; MDA-MB-231, 48 h): 1.81 ± 0.13 µM
SI MDA-MB-231 (selectivity index) [3]: 26.70
IC50 [5]: 48.3 ± 3.78 µM

IC50 ([2]; MCF7, CCK-8, 48 h, mean ± SD of three experiments): 5.12 ± 0.31 µM
IC50 ([3]; MDA-MB-231, CCK-8, 48 h, mean ± SD of three experiments): 4.92 ± 0.44 µM
Compound: COc1cccc2c1C(=O)c1c(O)c3c(c(O)c1C2=O)C[C@@](O)(C(=O)CO)C[C@@H]3O[C@H]1C[C@H](N)[C@H](O)[C@H](C)O1 [Adriamycin, adriamycin, reference compound]

Compound: N.N.[Cl][Pt][Cl] [Cisplatin, cisplatin, reference compound]
IC50 [1]: 4.97 ± 0.37 µM
